From ChEMBL document CHEMBL1201862, “PubChem BioAssay data set” (2004) come the findings set out here.

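Values below derive from 48-hour exposures of cells grown in 96-well plates, with endpoints linearly interpolated between the two concentrations bracketing the appropriate inhibition level. Here, GI50 denotes the concentration required for 50% inhibition of growth.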 The source made the active and inactive calls. Rule as the data show it: active = GI50 up to about 1.1 µM and inactive = higher.

Some test systems named below: LOX IMVI; EKVX; K562; SK-OV-3; NCI-H460; SF-268; OVCAR-4; MDA-MB-231; KM12; NCI-H226; HCT-15; IGROV-1; MDA-MB-435; SF-295; OVCAR-5; HCC 2998; SK-MEL-28; SN12C; COLO 205; A549.
Common to all, as to test: inhibition of tumour cell growth, NCI panel, 48 h

Turning to `CC(C)=CCc1cc2c(cc1O)OC[C@H]1c3cc4c(cc3O[C@@H]21)OCO4`, the GI50 in the experiment on LOX IMVI is 17.3 µM (inactive); in the experiment with EKVX it was 22.2 µM (inactive); with K562, 36.7 µM (inactive); with SK-OV-3, > 100 µM (inactive); with NCI-H460 it was 21.2 µM (inactive); in the experiment with SF-268, 56.6 µM (inactive). For the same molecule, the GI50 was 37.4 µM (inactive) with OVCAR-4; 40.3 µM (inactive) in the experiment on MDA-MB-231; 39.6 µM (inactive) in the experiment with KM12; 23.8 µM (inactive) with NCI-H226; 35.8 µM in the experiment with HCT-15; > 100 µM (inactive) in the experiment on IGROV-1. The GI50 in the experiment on MDA-MB-435 is 32.6 µM (inactive); in the experiment on SF-295 it was > 100 µM (inactive); in the experiment on OVCAR-5, 61.7 µM (inactive); with HCC 2998, > 10 µM (inactive); in the experiment with SK-MEL-28 it was 83.4 µM (inactive); in the experiment on SN12C it was > 10 µM (inactive). For the same molecule, the GI50 in the experiment with COLO 205 is > 100 µM (inactive); with A549, 80.4 µM (inactive).
Regarding `CC1CCC2C(C)C(=O)OC2C2(C)C(=O)C=CC12` (stereo not given), the GI50 in the experiment on LOX IMVI is 8.69 µM (inactive); in the experiment with EKVX, > 10 µM (inactive); with K562 it was 4.57 µM (inactive); in the experiment with SK-OV-3, > 10 µM (inactive); in the experiment on NCI-H460 it was > 10 µM (inactive); with SF-268 it was > 10 µM (inactive). The GI50 was > 10 µM (inactive) with OVCAR-4; > 10 µM (inactive) in the experiment on MDA-MB-231; > 10 µM (inactive) in the experiment with KM12; > 10 µM (inactive) in the experiment with NCI-H226; greater than 10 µM in the experiment with HCT-15; > 10 µM (inactive) in the experiment on IGROV-1. The GI50 in the experiment with MDA-MB-435, in the experiment on SF-295, in the experiment with OVCAR-5, in the experiment with HCC 2998, in the experiment on SK-MEL-28 and in the experiment with SN12C was > 10 µM (inactive) each time. For the same molecule, the GI50 with COLO 205 and in the experiment on A549 was > 10 µM (inactive) each time.
Consider `CCOP(=O)(OCC)C(C)(CC)N/C(=N\C1=NC(C(F)(F)F)(C(F)(F)F)N=C(C(F)(F)F)O1)NC(NC(C)=O)(C(F)(F)F)C(F)(F)F` (stereo not given), for which the GI50 is 32.2 µM (inactive) with LOX IMVI; 30.8 µM (inactive) with EKVX; 16.9 µM (inactive) in the experiment with K562; 27.4 µM (inactive) with SK-OV-3; 35.3 µM (inactive) with NCI-H460; 52.2 µM (inactive) in the experiment on SF-268. In addition, the GI50 with OVCAR-4 is 16.5 µM (inactive); with MDA-MB-231, 22.9 µM (inactive); in the experiment on KM12, 35 µM (inactive); in the experiment with NCI-H226, 22 µM (inactive); with HCT-15, 58.5 µM; in the experiment on IGROV-1, 51.2 µM (inactive). Besides, the GI50 with MDA-MB-435 is 32.7 µM (inactive); in the experiment with SF-295 it was 18 µM (inactive); in the experiment on OVCAR-5, 45 µM (inactive); in the experiment on HCC 2998, 34 µM (inactive); in the experiment with SK-MEL-28, > 100 µM (inactive); in the experiment on SN12C, 34.1 µM (inactive). Besides, the GI50 in the experiment on COLO 205 was 16.1 µM (inactive); with A549 it was 53.5 µM (inactive).
For the molecule `CCOC(=O)/C(C(N)=O)=C(O)/C(O)=C(\Br)C(=O)c1ccccc1`, the GI50 in the experiment with LOX IMVI is 15.6 µM (inactive); in the experiment on EKVX, 23.9 µM (inactive); in the experiment on K562 it was 11.8 µM (inactive); in the experiment on SK-OV-3, 26.2 µM (inactive); in the experiment on NCI-H460, 24.8 µM (inactive); with SF-268, 19.5 µM (inactive). For the same molecule, the GI50 in the experiment on OVCAR-4 was 22 µM (inactive); in the experiment on MDA-MB-231 it was 19.6 µM (inactive); in the experiment on KM12, 18.1 µM (inactive); with NCI-H226, 19.5 µM (inactive); in the experiment with HCT-15 it was 18.2 µM; in the experiment with IGROV-1, 15.9 µM (inactive). Further, the GI50 is 16.9 µM (inactive) in the experiment with MDA-MB-435; 56.8 µM (inactive) in the experiment with SF-295; 19.4 µM (inactive) in the experiment with OVCAR-5; 22 µM (inactive) in the experiment on HCC 2998; 17.9 µM (inactive) in the experiment on SK-MEL-28; 18.5 µM (inactive) with SN12C. The GI50 with COLO 205 is 17.3 µM (inactive); with A549, 20.4 µM (inactive).
In the case of `O=C1NC(=O)C(c2c[nH]c3cc(Br)ccc23)=C1c1cn(C(c2ccccc2)(c2ccccc2)c2ccccc2)cn1`, the GI50 in the experiment with LOX IMVI was 15.1 µM (inactive); in the experiment on EKVX, 7.82 µM (inactive); in the experiment on K562, 6.3 µM (inactive); in the experiment with SK-OV-3, 28.6 µM (inactive); in the experiment with NCI-H460, 11.1 µM (inactive); in the experiment with SF-268, 13.8 µM (inactive). The GI50 was 26.5 µM (inactive) in the experiment with OVCAR-4; 5.97 µM (inactive) in the experiment on MDA-MB-231; 9.23 µM (inactive) with KM12; 3.38 µM (inactive) with NCI-H226; 12.8 µM in the experiment on HCT-15; 12 µM (inactive) in the experiment on IGROV-1. The GI50 with MDA-MB-435 is 6.24 µM (inactive); in the experiment on SF-295, 18.1 µM (inactive); in the experiment on OVCAR-5 it was 17.5 µM (inactive); in the experiment on HCC 2998 it was 12.6 µM (inactive); with SK-MEL-28 it was 27.2 µM (inactive); with SN12C it was 15.5 µM (inactive). The GI50 was 12.3 µM (inactive) in the experiment on COLO 205 and 7.24 µM (inactive) with A549.
In the case of `O=C1O[C@H](c2ccc3c(c2)OCO3)[C@H]2CO[C@@H](c3ccc4c(c3)OCO4)[C@@H]12`, the GI50 is > 100 µM (inactive) in the experiment with LOX IMVI; > 100 µM (inactive) in the experiment on EKVX; 60.1 µM (inactive) in the experiment on K562; > 100 µM (inactive) with SK-OV-3; > 100 µM (inactive) in the experiment with NCI-H460; > 100 µM (inactive) in the experiment on SF-268. The GI50 was 96.2 µM (inactive) in the experiment with OVCAR-4; > 100 µM (inactive) with MDA-MB-231; > 100 µM (inactive) in the experiment with KM12; > 100 µM (inactive) in the experiment with NCI-H226; greater than 100 µM in the experiment on HCT-15; > 100 µM (inactive) in the experiment on IGROV-1. The GI50 with MDA-MB-435 is > 100 µM (inactive); with SF-295, 60.1 µM (inactive); in the experiment on OVCAR-5 it was > 100 µM (inactive); in the experiment on HCC 2998 it was > 100 µM (inactive); in the experiment on SK-MEL-28, > 100 µM (inactive); in the experiment on SN12C, > 100 µM (inactive). The GI50 was 85.5 µM (inactive) with COLO 205 and > 100 µM (inactive) in the experiment with A549.
As for `Clc1ccc(Cc2nc3cc(Cl)c(Cl)cc3n2CC2CCCN3CCCCC23)cc1` (stereo not given), the GI50 in the experiment on LOX IMVI was 5.6 µM (inactive); in the experiment on EKVX it was 10.3 µM (inactive); with K562, 7.41 µM (inactive); in the experiment with SK-OV-3, 16.9 µM (inactive); with NCI-H460, 7.53 µM (inactive); in the experiment on SF-268 it was 8.17 µM (inactive). Also, the GI50 with OVCAR-4 is 16.7 µM (inactive); with MDA-MB-231 it was 4.13 µM (inactive); in the experiment with KM12, 6.59 µM (inactive); with NCI-H226, 17.3 µM (inactive); with HCT-15, 10.7 µM; in the experiment on IGROV-1, 8.87 µM (inactive). In addition, the GI50 in the experiment with MDA-MB-435 was 13 µM (inactive); with SF-295, 13.4 µM (inactive); in the experiment on OVCAR-5, 12.8 µM (inactive); in the experiment with HCC 2998, 3.68 µM (inactive); in the experiment on SK-MEL-28 it was 6.93 µM (inactive); in the experiment with SN12C, 12.3 µM (inactive). Besides, the GI50 in the experiment on COLO 205 is 10.3 µM (inactive); in the experiment with A549 it was 13.2 µM (inactive).
`O=C1Oc2cc(O)cc(/C=C/c3ccc(O)cc3)c2[C@@]12c1c(O)cc(O)cc1OC2c1cccc(O)c1` (stereo not given in full): the GI50 with LOX IMVI was 23.3 µM (inactive); with EKVX, 49.3 µM (inactive); in the experiment with K562, 39.8 µM (inactive); in the experiment on SK-OV-3, 30.8 µM (inactive); in the experiment with NCI-H460, 20.9 µM (inactive); with SF-268, 36.6 µM (inactive). For the same molecule, the GI50 in the experiment on OVCAR-4 was 56.2 µM (inactive); with MDA-MB-231, 26.4 µM (inactive); with KM12, 25.6 µM (inactive); with NCI-H226 it was 11.1 µM (inactive); in the experiment with HCT-15, 83.4 µM; in the experiment with IGROV-1, 0.61 µM (active). Also, the GI50 with MDA-MB-435 was 21.4 µM (inactive); with SF-295, 32.2 µM (inactive); in the experiment with OVCAR-5 it was 29.2 µM (inactive); with HCC 2998 it was 19.5 µM (inactive); in the experiment with SK-MEL-28 it was 37.3 µM (inactive); with SN12C, 25.9 µM (inactive). Besides, the GI50 in the experiment on COLO 205 is 26 µM (inactive); in the experiment on A549, 54 µM (inactive).
For the molecule `O=[N+]([O-])C(=C/c1cccc2ccccc12)/C(=C\c1cccc2ccccc12)[N+](=O)[O-]`, the GI50 in the experiment on LOX IMVI is 1.61 µM (inactive); with EKVX, 3.4 µM (inactive); in the experiment with K562, 3.08 µM (inactive); in the experiment with SK-OV-3 it was 6.08 µM (inactive); with NCI-H460 it was 2.34 µM (inactive); in the experiment on SF-268 it was 2.32 µM (inactive). For the same molecule, the GI50 with OVCAR-4 was 2.91 µM (inactive); in the experiment with MDA-MB-231 it was 2.1 µM (inactive); in the experiment with KM12 it was 4.23 µM (inactive); in the experiment on NCI-H226 it was 4.85 µM (inactive); with HCT-15, 1.9 µM; with IGROV-1 it was 1.79 µM (inactive). In addition, the GI50 is 2.28 µM (inactive) in the experiment with MDA-MB-435; 2.58 µM (inactive) in the experiment on SF-295; 3.66 µM (inactive) with OVCAR-5; 2.42 µM (inactive) in the experiment with HCC 2998; 1.83 µM (inactive) in the experiment on SK-MEL-28; 2.34 µM (inactive) with SN12C. For the same molecule, the GI50 is 3.44 µM (inactive) in the experiment on COLO 205 and 15.3 µM (inactive) with A549.
Consider `CC(N)(Cc1c[nH]c2ccccc12)C(=O)O` (stereo not given), for which the GI50 in the experiment on LOX IMVI, in the experiment on EKVX, in the experiment with K562, in the experiment on SK-OV-3, in the experiment with NCI-H460 and in the experiment with SF-268 was > 100 µM (inactive) in each case. For the same molecule, the GI50 in the experiment on OVCAR-4 was > 100 µM (inactive); in the experiment on MDA-MB-231 it was > 100 µM (inactive); in the experiment with KM12, > 100 µM (inactive); in the experiment on NCI-H226, > 100 µM (inactive); in the experiment on HCT-15 it was greater than 100 µM; in the experiment on IGROV-1, > 100 µM (inactive). For the same molecule, the GI50 in the experiment on MDA-MB-435, in the experiment on SF-295, with OVCAR-5, with HCC 2998, in the experiment on SK-MEL-28 and in the experiment on SN12C was > 100 µM (inactive) throughout. For the same molecule, the GI50 in the experiment on COLO 205 and in the experiment on A549 was > 100 µM (inactive) each time.
